Key:
CXCR2 = target: T1, CXCR2 (Homo sapiens, UniProt P25025); details: background, literature; cited from earlier work
T1 sequence (P25025 1-360): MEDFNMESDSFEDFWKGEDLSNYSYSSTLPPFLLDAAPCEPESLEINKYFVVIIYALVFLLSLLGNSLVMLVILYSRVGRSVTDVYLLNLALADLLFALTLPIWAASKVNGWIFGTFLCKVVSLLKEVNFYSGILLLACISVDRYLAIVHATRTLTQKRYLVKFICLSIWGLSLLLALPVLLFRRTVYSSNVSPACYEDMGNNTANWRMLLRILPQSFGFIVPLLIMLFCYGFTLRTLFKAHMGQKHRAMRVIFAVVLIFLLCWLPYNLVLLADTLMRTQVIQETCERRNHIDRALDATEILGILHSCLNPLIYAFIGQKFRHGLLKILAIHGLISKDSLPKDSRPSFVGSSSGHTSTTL

[1] = background, literature; cited from earlier work
[2] = Stability test of anhydrous form in climatic chamber (50% R.H., about 25° C., 24 hours); assay type: physicochemical
Description: (§1) • Instrument: Mettler DL38, V30 or equivalent • Electrode: Double platinum pin electrode DM 143-SC for Karl Fischer titration. • Titrant: Karl Fischer reagent 5 mg H2O/ml • Solvent: 30 ml of methanol previously neutralized with Karl Fischer reagent. • Procedure: about 0.2 g of the product, accurately weighed, were dissolved in the solvent and titrated with the Karl Fischer reagent.

CXCR1 = target: T2, CXCR1 (Homo sapiens, UniProt P25024); details: background, literature; cited from earlier work
T2 sequence (P25024 1-350): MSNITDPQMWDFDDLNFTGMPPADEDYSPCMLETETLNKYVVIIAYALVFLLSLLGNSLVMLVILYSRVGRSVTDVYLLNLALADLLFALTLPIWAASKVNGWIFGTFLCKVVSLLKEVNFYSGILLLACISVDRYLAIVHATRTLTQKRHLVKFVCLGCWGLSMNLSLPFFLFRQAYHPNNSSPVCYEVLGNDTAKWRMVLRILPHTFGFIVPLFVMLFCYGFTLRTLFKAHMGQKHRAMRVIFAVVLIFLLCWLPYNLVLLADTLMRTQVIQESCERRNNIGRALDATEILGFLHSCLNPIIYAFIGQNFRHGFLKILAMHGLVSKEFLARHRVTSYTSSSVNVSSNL

[3] = Stability test under conditions A (30° C. and 65% R.H.); assay type: physicochemical
Description: (§2) The monohydrate DF2755A was then subjected to stability tests under the following conditions: • A) at 30° C. and 65% R.H. (up to 18 months) and • B) at 40° C. and 75% R.H. (accelerated stability up to 12 months).
(§3) The samples were analysed for appearance, water content, HPLC purity, HPLC assay, HPLC enantiomeric purity and DSC thermal behaviour.

[4] = Tapped and bulk density (Ph. Eur. 2.9.34), compressibility index, Hausner ratio; assay type: physicochemical
Description: Tapped and Bulk Density were determined with a density tester ERWEKA SMV 102 (Heusenstamm, Germany) according to European Pharmacopeia (Ph. Eur. 2.9.34).
Compressibility Index was calculated according to the formula:
C.I.=100×(tapped density−bulk density)/tapped density.
Hausner ratio was calculated according to the formula:
H.r.=tapped density/bulk density

[5] = Particle size distribution (Malvern Mastersizer 3000, Aero S); assay type: physicochemical; details: powder of Example 3A
Description: Particle Size Distribution was measured by Malvern Mastersizer 3000 using Aero S accessory.

[6] = Stability test under accelerated conditions B (40° C. and 75% R.H.); assay type: physicochemical; design: key to Appearance: Compl.: Compl: compliant
Description: • Apparatus: Agilent HP 1100, HP 1200 or equivalent HPLC system with UV detector • Detector: wavelength: 220 nm • Column: BDS Hypersyl C18, 250×4.6 mm, 5 μm (Thermo) or equivalent • Column temperature: 35° C. • Mobile phase: (A) Buffer solution KH2PO4 0.025M (pH 3.0). Procedure: dissolve 3.4 g of potassium dihydrogen phosphate in water and dilute to 1000 ml with water; adjust to pH 3.0 with dilute phosphoric acid or with potassium hydroxide solutions. (B) acetonitrile. • Flow: 1.3 ml/minute • Injection Volume: 10 μl • Time between injections: 26 min • Diluent: H2O/CH3CN (40/60) • Relative retention time: DF 2755 Rt 11.8 min • Gradient: Table 2
• Chromatographic conditions • Apparatus: Agilent HP 1100, HP 1200 or equivalent HPLC system with UV detector • Detector: wavelength: 294 nm • Column: Chiralpak AS-RH, 150×4.6 mm […] (Daicel) or equivalent • Column temperature: 35° C. • Mobile phase: (A) Buffer solution KH2PO4 0.025M (pH 3.0) Procedure: dissolve 3.4 g of potassium dihydrogen phosphate in water and dilute to 1000 ml with water; adjust to pH 3.0 with dilute phosphoric acid or with potassium hydroxide solutions; (B) acetonitrile • Flow: 0.7 ml/minute • Injection volume: 10 μl • Time between injections: 45 min • Diluent: H2O/CH3CN (40/60) • Eluent: 70% Mobile phase A, 30% Mobile phase B
as §1
(§4) The analysis was carried out on three samples and the results averaged. The limit had to be not more than 10.0%.
as §2, §3

[7] = Water content by Karl-Fischer of the prepared product; assay type: physicochemical; details: product as prepared by controlled hydration
Description: as §1
[formula] • where • V=ml of the Karl Fischer reagent used in the titration • e=equivalent of the Karl Fischer reagent (mg H2O/ml) • w=weight of the sample in g
as §4

[8] = 50% R.H., about 25° C., 24 hours

## C[C@H](C(=O)[O-])c1ccc(Nc2nc(C(F)(F)F)cs2)cc1.[Na+] [anhydrous DF2755A, sodium (2S)-2-(4-{[4-(trifluoromethyl)-1,3-thiazol-2-yl]amino}phenyl) propanoate]
CXCR2
  Inhibitory activity of CXCR2 receptor: selective dual potent inhibitory activity
[1]
  Oral pharmacokinetic profile: favorable
[2]; [8]
  Appearance after exposure: sticky hydrated solid
  Water content measured by Karl Fischer analysis after exposure: 17%
[2]; after exposure to humidity, about 25° C., 24 hours
  Amount of by-product of hydroxylation at position 4 of the thiazole ring (1H-NMR): about 50 % mol/mol
[2]; anhydrous form, absorbs water from the environment
  Hygroscopicity: highly hygroscopic
[2]; under the test conditions (50% R.H., about 25° C., 24 hours)
  Stability conclusion: both physically and chemically unstable
CXCR1
  Inhibitory activity of CXCR1 receptor: selective dual potent inhibitory activity

## C[C@H](C(=O)[O-])c1ccc(Nc2nc(C(F)(F)F)cs2)cc1.O.[Na+] [monohydrate DF2755A, crystalline monohydrate sodium (2S)-2-(4-{[4-(trifluoromethyl)-1,3-thiazol-2-yl]amino}phenyl) propanoate]
[3]; 30° C. and 65% R.H.
  Time completely stable: ≥ 18 months
[3]; 30° C./65% R.H.
  DSC profile over time: substantially the same DSC profile over time
[4]; 100×(tapped density−bulk density)/tapped density
  Compressibility index: 30.7
[4]; powder of Example 3A
  Bulk density: 0.178 g/mL
  Tapped density: 0.256 g/mL
[4]; tapped density/bulk density
  Hausner ratio: 1.44
[5]
  Particle size distribution D(0.1): 2.09 μm
  Particle size distribution D(0.5): 7.86 μm
  Particle size distribution D(0.9): 25.42 μm
[6]; 40° C./75% R.H., 0 months
  Assay % (HPLC): 97.40%
  DFL23803 (HPLC) by-product content: ≤0.11%
  Enantiomeric purity % (HPLC): DF2703Y content: 1.0%
  Total impurities content % (HPLC): 0.03%
  Water content (K.F %): 5.27%
[6]; 40° C./75% R.H., 0 months, limit white to ivory powder
  Appearance: Compl.
[6]; 40° C./75% R.H., 1 month
  Appearance: Compl.
  Assay % (HPLC): 96.93%
  DFL23803 (HPLC) by-product content: ≤0.11%
  Enantiomeric purity % (HPLC): DF2703Y content: 1.0%
  Total impurities content % (HPLC): 0.03%
  Water content (K.F %): 5.27%
[6]; 40° C./75% R.H., 3 months
  Appearance: Compl.
  Assay % (HPLC): 97.67%
  DFL23803 (HPLC) by-product content: ≤0.11%
  Enantiomeric purity % (HPLC): DF2703Y content: 1.0%
  Total impurities content % (HPLC): 0.03%
  Water content (K.F %): 5.12%
[6]; 40° C./75% R.H., 6 months
  Appearance: Compl.
  Assay % (HPLC): 96.94%
  DFL23803 (HPLC) by-product content: ≤0.11%
  Enantiomeric purity % (HPLC): DF2703Y content: 1.0%
  Total impurities content % (HPLC): 0.03%
  Water content (K.F %): 4.95%
[6]; 40° C./75% R.H., 12 months
  Appearance: Compl.
  Assay % (HPLC): 100.3%
  DFL23803 (HPLC) by-product content: ≤0.11%
  Enantiomeric purity % (HPLC): DF2703Y content: 1.0%
  Total impurities content % (HPLC): 0.02%
  Water content (K.F %): 5.17%
[6]; accelerated conditions B, 40° C. and 75% R.H.
  Time completely stable: ≥ 12 months
[6]; conditions B, 40° C./75% R.H.
  DSC profile over time: substantially the same DSC profile over time
[6]; unchanged water content for at least 12 months under accelerated stability conditions
  Hygroscopicity: not hygroscopic
[7]
  Water content by Karl Fisher method: 5.27 % by weight
